Assay results reported in the NIST ThermoML archive (doi:10.1016/j.tca.2004.11.013).

Legend:
[1] = Molar enthalpy of transition or fusion; details: Crystal; DSC
[2] = for viscosity: 298 K, moving piston; for viscosity / thermal conductivity / mass density: 101.33 kPa, Liquid; for thermal conductivity: hot wire; for mass density: 333.1 K, Vibrating tube method; for Normal melting temperature: Crystal
[3] = molar heat capacity at constant pressure; details: 101.33 kPa, Liquid, Small sample (50 mg) DSC

CCn1cc[n+](C)c1.F[B-](F)(F)F [1-ethyl-3-methylimidazolium tetrafluoroborate]
Details | Molar enthalpy of transition or fusion [kcal/mol] | mass density [kg/m3] | viscosity [mPa·s]
[1] | 2.28 | – | –
[2] | – | 1252.6 | 36.07

Details | Normal melting temperature [°C] | molar heat capacity at constant pressure [J/K/mol] | thermal conductivity [W/m/K]
[2], 300 K | – | – | 0.199
[2], 310 K | – | – | 0.197
[2], 320 K | – | – | 0.196
[2], 330 K | – | – | 0.195
[2], 340 K | – | – | 0.194
[2], 350 K | – | – | 0.193
[2], 360 K | – | – | 0.191
[2], 370 K | – | – | 0.19
[2], 380 K | – | – | 0.189
[2], 390 K | – | – | 0.188
[2], DTA | 14.42 | – | –
[3], 273.15 K | – | 244.49 | –
[3], 293.15 K | – | 250.04 | –
[3], 313.15 K | – | 254 | –
[3], 333.15 K | – | 256.77 | –
[3], 353.15 K | – | 258.15 | –
[3], 373.15 K | – | 257.95 | –
[3], 393.15 K | – | 256.57 | –
[3], 403.15 K | – | 255.18 | –

CCC[n+]1ccn(C)c1C.O=S(=O)([N-]S(=O)(=O)C(F)(F)F)C(F)(F)F
Details | Molar enthalpy of transition or fusion [kcal/mol] | mass density [kg/m3] | viscosity [mPa·s]
[1] | 4.71 | – | –
[2] | – | 1420.5 | 90.05

Details | Normal melting temperature [°C] | molar heat capacity at constant pressure [J/K/mol] | thermal conductivity [W/m/K]
[2], 300 K | – | – | 0.13
[2], 310 K | – | – | 0.13
[2], 320 K | – | – | 0.129
[2], 330 K | – | – | 0.129
[2], 340 K | – | – | 0.128
[2], 350 K | – | – | 0.128
[2], 360 K | – | – | 0.127
[2], 370 K | – | – | 0.127
[2], 380 K | – | – | 0.126
[2], 390 K | – | – | 0.126
[2], DTA | 11.29 | – | –
[3], 323.15 K | – | 473.46 | –
[3], 348.15 K | – | 487.72 | –
[3], 373.15 K | – | 501.98 | –
[3], 398.15 K | – | 515.4 | –
[3], 423.15 K | – | 528.4 | –
[3], 448.15 K | – | 540.98 | –
[3], 473.15 K | – | 553.14 | –
[3], 498.15 K | – | 564.47 | –
[3], 523.15 K | – | 575.79 | –
[3], 548.15 K | – | 586.69 | –
[3], 573.15 K | – | 597.18 | –
[3], 598.15 K | – | 607.24 | –
[3], 623.15 K | – | 616.89 | –
[3], 663.15 K | – | 631.15 | –

CCCCn1cc[n+](C)c1.F[B-](F)(F)F [1-butyl-3-methylimidazolium tetrafluoroborate]
[2]
Details | mass density [kg/m3] | viscosity [mPa·s]
– | 1174.7 | 119.78

Details | molar heat capacity at constant pressure [J/K/mol] | thermal conductivity [W/m/K]
[2], 300 K | – | 0.186
[2], 310 K | – | 0.185
[2], 320 K | – | 0.184
[2], 330 K | – | 0.184
[2], 340 K | – | 0.183
[2], 350 K | – | 0.183
[2], 360 K | – | 0.182
[2], 370 K | – | 0.181
[2], 380 K | – | 0.181
[2], 390 K | – | 0.18
[3], 223.15 K | 268.74 | –
[3], 248.15 K | 289.54 | –
[3], 273.15 K | 308.75 | –
[3], 298.15 K | 326.15 | –
[3], 323.15 K | 341.75 | –
[3], 348.15 K | 355.76 | –
[3], 373.15 K | 367.74 | –
[3], 398.15 K | 378.36 | –
[3], 423.15 K | 386.95 | –
[3], 448.15 K | 393.96 | –
[3], 473.15 K | 399.16 | –
[3], 498.15 K | 402.77 | –
[3], 523.15 K | 404.35 | –
[3], 548.15 K | 404.35 | –
[3], 573.15 K | 402.77 | –

Details | Glass transition temperature [°C]
[2], Glass, DTA | -87.38
